Legend:
ULK1 = biological target: T1, ULK1 (Homo sapiens, UniProt O75385); assay: Inhibition of ULK1 protein activity (ADP-Glo method); type: biochemical; conditions: ULK1 enzyme, ATP and MBP substrate, 60 min room temperature
T1 construct: purchased Promega V3521
T1 sequence (O75385 1-649 limits assumed): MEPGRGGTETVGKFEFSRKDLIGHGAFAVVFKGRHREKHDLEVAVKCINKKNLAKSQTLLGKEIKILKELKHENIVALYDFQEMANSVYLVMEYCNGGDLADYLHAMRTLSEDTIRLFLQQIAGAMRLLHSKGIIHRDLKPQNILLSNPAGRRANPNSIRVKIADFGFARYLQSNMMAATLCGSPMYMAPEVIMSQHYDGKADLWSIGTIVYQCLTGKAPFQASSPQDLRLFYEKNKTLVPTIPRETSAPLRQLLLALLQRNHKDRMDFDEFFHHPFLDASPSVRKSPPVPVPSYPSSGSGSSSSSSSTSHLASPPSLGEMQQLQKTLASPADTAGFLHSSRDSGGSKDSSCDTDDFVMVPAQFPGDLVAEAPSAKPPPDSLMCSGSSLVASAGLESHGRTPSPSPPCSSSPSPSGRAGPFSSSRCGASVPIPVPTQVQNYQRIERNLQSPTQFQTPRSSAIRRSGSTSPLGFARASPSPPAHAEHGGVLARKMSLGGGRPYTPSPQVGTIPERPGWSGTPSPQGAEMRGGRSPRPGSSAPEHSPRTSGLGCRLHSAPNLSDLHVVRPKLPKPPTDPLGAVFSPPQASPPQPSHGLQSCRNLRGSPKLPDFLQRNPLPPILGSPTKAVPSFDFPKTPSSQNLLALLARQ
Experimental: In this experiment, the inhibitory effect of a compound on the phosphorylation function of ULK1 was detected by ADP-Glo method. The inhibitory effect of the compound of the present disclosure on the ULK1 target was evaluated based on IC50.
Compound formulation: Using an ECHO (Beckman, ECHO650), the compound was serially diluted 3-fold in DMSO in a 384-well plate (PE, 6007290). A total of 10 concentration points were set, with the maximum concentration of the compound being 10 μM, and 50 nL per well. Positive control wells and negative control wells were added with 50 nL DMSO, respectively.
Reaction process: A 32 nM of ULK1 (Promega, V3521) solution was formulated, and 2.5 μL/well was transferred to the compound test wells and the negative control wells (NC). 2.5 μL/well of 1× Assay buffer was added to the positive control wells (PC). A mixed solution of 100 μM of ATP and 1.86 μM of MBP was formulated, and 2.5 μL/well was transferred to the reaction plate. After centrifugation, the reaction was initiated and incubated at room temperature for 60 min. After the reaction was completed, 5 μL/well of ADP-Glo Reagent (Promega, V9102) was added to the reaction plate. After centrifugation, the reaction was incubated at room temperature for 40 minutes. Finally, 10 μL/well of Kinase Detection Buffer was added, followed by centrifugation and incubation at room temperature for 30 min. The chemiluminescence value was read using Envision (PE, Envision2105).
Assay buffer: a reaction buffer; and Kinase Detection buffer: a detection buffer, both were taken from the ADP-Glodetection kit, purchased from Promega, model V9102. 3. Data analysis
The inhibition ratio of a compound on ULK1 activity was calculated using the following formula:
Inhibition ratio=(sample signal value−negative control signal value)/(positive control signal value−negative control signal value)×100%. The dose-effect curve was fitted using the log(inhibitor) vs. response -Variable slope of the analysis software GraphPad Prism 8, thereby affording the IC50 value of each compound for enzyme activity.

[1] = test system: ATG13 phosphorylation level in MIA PaCa-2 cells; assay: Inhibition of ATG13 phosphorylation level in MIA PaCa-2 cells (pATG13 ELISA); type: cell-based; conditions: Homo sapiens, Torin1 100 nM, 24 h incubation, Phospho-Atg13 (ser355)
Experimental: The inhibitory effect of the compound of the present disclosure on ULK1 was evaluated by testing the inhibitory effect of the compound of the present disclosure on ATG13 phosphorylation level in MIA PaCa-2 cells.
MIA PaCa-2 cells (ATCC, CRM-CRL-1420) were cultured in a complete medium, namely, a DMEM medium (Gibco, 11965-092) containing 10% fetal bovine serum (Corning, 35-081-CV), 2.5% horse serum (Gibco, 16050-122) and 1% double antibody (Gibco, 15140-122). The experiments were performed according to the requirements of the kit (Cell Signaling Technology, 17208C).
Cell plating: MIA PaCa-2 at 80% growth confluence were digested, diluted with the complete medium, and added to a 96-well cell culture plate (Costar, 3596) at 20,000 cells per well, with a volume of 90 μL.
Compound incubation: 5 μL of Torin1 and 5 μL of a serially diluted compound were added to each well so that the highest concentration of the compound in the reaction system was 10 μM. 5-fold serial dilution with 8 concentrations was performed, and the final concentration of Torin1 was 100 nM. The DMSO content in the system was 0.1%. The reaction plate was placed in an incubator at 37° C. in 5% CO2, and was incubated for 24 h. 10 μL of Torin1 was added to the negative control wells (NC) to a final concentration of 100 nM, with a DMSO content of 0.1%.
Reaction detection: After the incubation was completed, the cell plate was washed with a pre-cooled DPBS (Corning, 21-031-CVC) to wash away the compound and medium. 50 μL of pre-cooled cell lysis solution was added to each well, incubated on ice for 10 min. The cell plate was centrifuged, and the supernatant was transferred to an ELISA reaction plate. Simultaneously, 50 μL of Phospho-Atg13 (ser355) rabbit detection antibody was added, followed by incubation at room temperature under shaking for 60 min. After the incubation was completed, the reaction plate was washed with a washing solution for 4 times. 100 μL of TMB substrate was added for color development reaction, followed by incubation under shaded conditions with shaking for 15 min. Finally, 100 μL of stop solution was added to each well. The reaction was terminated by shaking for 10 s, and the absorbance value at 450 nm and 560 nm were collected within 10 min using Envision (Perkin Elmer, EnVision 2105).
The inhibition ratio was calculated by subtracting the absorbance value at […] from the absorbance value at 450 nm for each well. The inhibition ratio formula is as follows: inhibition ratio=(sample signal value−negative control signal value)/(positive control signal value -negative control signal value)×100%.
The dose-effect curve was fitted using the log (inhibitor) vs. response -Variable slope of Graphpad Prism8, thereby affording the IC50 value of each compound for inhibiting ATG13 phosphorylation level.

[2] = test system: HEK293 GFP-LC3 stably transfected cells; assay: Inhibition of autophagy level in HEK293 GFP-LC3 stably transfected cells (autophagic flux); type: cell-based; conditions: Homo sapiens, Torin1 100 nM, 24 h, GFP fluorescence
Experimental: The inhibitory effect of the compound of the present disclosure on intracellular autophagy was evaluated by testing the impact of the compound of the present disclosure on the fluorescence intensity of HEK293 GFP-LC3 stably transfected cells.
HEK293 GFP-LC3 stably transfected cells (HEK293, ATCC, CRL-1573) were cultured in a complete medium, namely, a DMEM medium (Gibco, 11965-092) containing 10% fetal bovine serum (Corning, 35-081-CV), 1% double antibody (Gibco, 15140-122) and 1 μg/mL of Puromycin (Invitrogen-A1113803).
Cell plating: HEK293 GFP-LC3 stably transfected cells at 80% growth confluence were digested, diluted with a medium free of Puromycin, and added to a 96-well cell culture plate (Geriner, 655090) at 12,000 cells per well, with a volume of 90 μL.
Compound incubation: 5 μL of Torin1 and 5 μL of a serially diluted compound were added to each well so that the highest concentration of the compound in the reaction system was 10 μM. 3-fold serial dilution with 8 concentrations was performed, and the final concentration of Torin1 was 100 nM. The DMSO content in the system was 0.1%. The positive control wells (PC) contain DMSO at a final concentration of 0.1%, and the negative control wells (NC) contain 100 nM of Torin1 with 0.1% of DMSO. The reaction plate was placed in an incubator at 37° C. in 5% CO2, and was incubated for 24 h.
Cell staining and fixation: The cell plate was taken out, and 10 μL of Hochest33342 nuclear staining reagent (Thermo, H1399) was added to each well, followed by incubation at 37° C. in 5% CO2 for 30 min. After the incubation was completed, the cell supernatant was discarded, and 100 μL of pre-cooled 4% paraformaldehyde was added to each well to fix the cells for 15 min. Then, the fixative was discarded, and 100 μL of PBS was added to each well. Images were captured for analysis using a high-content cell imaging analyzer (PE, Operetta CLS), and GFP fluorescence signals were collected for data processing.
The average GFP fluorescence signal intensity in the reaction wells was collected for the calculation of the inhibition ratio:
The dose-effect curve was fitted using the log(inhibitor) vs. response -Variable slope of Graphpad Prism8, thereby affording the IC50 value of each compound for inhibiting autophagy level in HEK293 GFP-LC3 stably transfected cells.

Compound	IC50 (ULK1) [nM]	IC50 [1] [nM]	IC50 [2] [nM]
CN1CCN(c2ccc(Nc3ncc(C(F)(F)F)c(OCCCN4CCCCC4=O)n3)c(C3CC3)c2)CC1 [Example 1]	< 100	100 to 1000	100 to 1000
CN1CCN(c2ccc(Nc3ncc(C(F)(F)F)c(N4CCN(C)C(=O)C4)n3)c(C3CC3)c2)CC1 [Example 5]	< 100	> 1000	> 1000
CN1CCN(c2ccc(Nc3ncc(C(F)(F)F)c(N4CCC(n5cccn5)CC4)n3)c(C3CC3)c2)CC1 [Example 14]	< 100	< 100	> 1000
CN1CCc2cc(Nc3ncc(C(F)(F)F)c(N4CCN(C)C(=O)C4)n3)ccc2C1 [Example 15]	< 100	100 to 1000	100 to 1000
CN1CCN(c2ccc(Nc3ncc(C(F)(F)F)c(N4CCC5(CCN(C)C5)CC4)n3)c(C3CC3)c2)CC1 [Example 19]	< 100	> 1000	100 to 1000
CN1CCN(c2ccc(Nc3ncc(C(F)(F)F)c(NC4CCN(C(=O)C5CCC5)CC4)n3)c(C3CC3)c2)CC1 [Example 20]	< 100	> 1000	> 1000
CN1CCN(c2ccc(Nc3ncc(C(F)(F)F)c(N4CC5(CN(C)C5)C4)n3)c(C3CC3)c2)CC1 [Example 24]	< 100	100 to 1000	100 to 1000
CN1CCN(c2ccc(Nc3ncc(C(F)(F)F)c(N4CCC5(CCN(C)C5)C4)n3)c(C3CC3)c2)CC1 (stereo not drawn) [Example 26]	< 100	100 to 1000	> 1000
CN1CCN(c2ccc(Nc3ncc(C(F)(F)F)c(OCCCn4cccn4)n3)c(C3CC3)c2)CC1 [Example 29]	< 100	100 to 1000	100 to 1000
CN1CCN(c2ccc(Nc3ncc(C(F)(F)F)c(NCCCn4cccn4)n3)c(C3CC3)c2)CC1 [Example 30]	< 100	> 1000	> 1000
CN1CCN(c2ccc(Nc3ncc(C(F)(F)F)c(N[C@H]4CC[C@@H](n5cccn5)CC4)n3)c(C3CC3)c2)CC1 [Example 32]	< 100	100 to 1000	> 1000
CN1Cc2cc(Nc3ncc(C(F)(F)F)c(OCCCN4CCCCC4=O)n3)ccc2C2(CC2)C1 [Example 49]	< 100	< 100	< 100
CN1CCN(c2ccc(Nc3ncc(C(F)(F)F)c(N4CCC5(CCN(C)CC5)CC4)n3)c(C3CC3)c2)CC1 [Example 51]	< 100	> 1000	100 to 1000
CN1CCN(c2ccc(Nc3ncc(C(F)(F)F)c(N4CCC5(CCN(C)CC5)C4)n3)c(C3CC3)c2)CC1 [Example 53]	< 100	100 to 1000	> 1000

From US20260274819A1, “ULK1 INHIBITOR, PREPARATION METHOD THEREFOR AND USE THEREOF” (DOVETREE MEDICINES UNUS, INC., priority 2023, published 2026)
